Assay results reported in patent US11344517B2, “Injectable supersaturated acetaminophen solution for spinal administration” (priority 2012, dated 2022).
≈ marks a conversion by molar mass, not a printed value. Where “and” joins values, the source holds several entries; their conditions need not be identical. Identical values can stand only once.

Experiments:
[1] = test system: oedema at the site of inflammation induced by carrageenan; test: Development of oedema (paw volume), carrageenan model; type: in vivo, mice; conditions: for Paw volume (oedema): mice, individual animals
Experimental: The efficacy of the acetaminophen supersaturated solution administered by spinal administration (IT) was tested by means of explorative experiments in a model of inflammatory pain in mice, induced by means of intraplantar injection (injection in the rear left paw, referred to hereinafter as the “site of inflammation”) of carrageenan (50 μl 1%).
The development of oedema at the site of inflammation was measured and expressed as an increase of volume (mL) of the site of inflammation.
Spinal administration in the mouse was carried out as described by Fairbanks (2003).

[2] = test system: post-surgical pain in rats; type: in vivo; conditions: 4 hours after the incision, IT acetaminophen 200 μg, chloroprocaine 3% 20 μL; for pain threshold following mechanical stimulation: individual animals
Experimental: The efficacy of the acetaminophen supersaturated solution administered by spinal administration (IT) was tested with explorative experiments in a model of post-surgical pain in rats in combination with a solution of chloroprocaine 3%.
The post-surgical pain was induced by means of incision and subsequent suture of the subplantar region of the rear left paw, as described by Timothy J. Brennan (1996).
The pain threshold following mechanical stimulation (expressed in grams) was measured 4 hours after the incision. Complete reduction of the anaesthetic effect of the spinal chloroprocaine is expected within this period of time. The reduction of the pain threshold is considered to be an indicator of pain and hyperalgesia of the zone affected by surgical intervention.

[3] = Solubility of acetaminophen at 20° C.; type: physicochemical; conditions: water
[4] = test system: post-surgical pain in rats; type: in vivo; conditions: IT chloroprocaine 3% 20 μL, after 4 hours

Row | Structure (SMILES) | Paw volume (oedema) ([1]; 10 μg IT, 2 hours after carrageenan) | Paw volume (oedema) ([1]; 10 μg IT, 4 hours after carrageenan) | Paw volume (oedema) ([1]; 10 μg IT, 6 hours after carrageenan) | Paw volume (oedema) ([1]; 10 μg IT, 24 hours after carrageenan) | Paw volume (oedema) ([1]; 10 μg IT, basal) | Paw volume (oedema) ([1]; 100 μg IT, 2 hours after carrageenan) | Paw volume (oedema) ([1]; 100 μg IT, 4 hours after carrageenan) | Paw volume (oedema) ([1]; 100 μg IT, 6 hours after carrageenan) | Paw volume (oedema) ([1]; 100 μg IT, 24 hours after carrageenan) | Paw volume (oedema) ([1]; 100 μg IT, basal) | reduction of the development of oedema at the site of inflammation ([1]; 100 μg per mouse IT, first two hours following induction) | pain threshold following mechanical stimulation [2] | solubility [3] [mg/mL] | recovery of walking and tension of the rear limbs [4] | effect on pain threshold / post-surgical pain [2]
1 | CC(=O)Nc1ccc(O)cc1 [Acetaminophen, acetyl-p-aminophenol] | 0.43 mL and 0.36 mL (2×) and 0.38 mL and 0.37 mL (2×) and 0.44 mL | 0.39 mL and 0.36 mL and 0.34 mL and 0.38 mL and 0.44 mL (2×) and 0.41 mL | 0.44 mL and 0.38 mL and 0.33 mL (2×) and 0.37 mL and 0.45 mL and 0.36 mL | 0.47 mL and 0.4 mL and 0.46 mL and 0.37 mL and 0.5 mL and 0.42 mL (2×) | 0.29 mL (2×) and 0.24 mL and 0.2 mL and 0.21 mL and 0.26 mL and 0.22 mL | 0.32 mL and 0.34 mL and 0.33 mL (3×) and 0.37 mL and 0.36 mL | 0.35 mL (2×) and 0.37 mL and 0.38 mL (2×) and 0.36 mL and 0.34 mL | 0.38 mL (2×) and 0.4 mL (2×) and 0.39 mL and 0.43 mL and 0.35 mL | 0.33 mL and 0.41 mL and 0.42 mL and 0.44 mL and 0.47 mL and 0.45 mL and 0.46 mL | 0.27 mL and 0.28 mL and 0.29 mL and 0.24 mL and 0.26 mL and 0.25 mL and 0.18 mL | approximately 20% | 22.75 grams and 24.90 grams and 24.00 grams and 28.00 grams and 38.75 grams | ~13 (≈ 86 mM) | – | –
2 | CCN(CC)CCOC(=O)c1ccc(N)cc1Cl [Chloroprocaine, chloroprocaine] | – | – | – | – | – | – | – | – | – | – | – | 23.60 grams and 22.75 grams and 19.75 grams and 24.25 grams | – | complete recovery in terms of walking and tension of the rear limbs | did not change the pain threshold
